For experiment [1], the system named is ACC2. Conditions: ACC2 isolated from rat, mouse, monkey and human; cited from earlier work.
Another experiment concerns ACC1. Conditions: ACC1 isolated from rat, mouse, monkey and human; cited from earlier work.
Experiment [2] has as its target ACC2 (Homo sapiens, UniProt O00763). Put plainly: in vitro ACC2 inhibition assay (ADP-Glo). Conditions: 5 nM ACC2, 20 μM ATP, 20 μM acetyl-CoA. The class given is biochemical. The procedure:
An exemplary procedure for the in vitro ACC inhibition assay, which can be used to determine the inhibitory action of compounds of the invention toward either ACCT or ACC2, follows. The ADP-Glo™ Kinase Assay kit from Promega is used. The ADP-Glo™ Kinase Assay is a luminescent ADP detection assay to measure enzymatic activity by quantifying the amount of ADP produced during an enzyme reaction. The assay is performed in two steps; first, after the enzyme reaction, an equal volume of ADP-Glo™ Reagent is added to terminate the reaction and deplete the remaining ATP. Second, the Kinase Detection Reagent is added to simultaneously convert ADP to ATP and allow the newly synthesized ATP to be measured using a luciferase/luciferin reaction. Luminescence can be correlated to ADP concentrations by using an ATP-to-ADP conversion curve. The detailed procedure is as follows. 50 μL of the compound being tested (600 uM in DMSO) is added to a 384-well dilution plate. The compound is diluted 1:3 in succession in DMSO for each row for 11 wells. […] is added to 384-well white Optiplate assay plate. 0.5 μL diluted compound solution in each column from step 2 is added to the assay plate, each row containing 2 replicates. For the last 2 rows, add 0.5 μL negative control (DMSO) in one row and 0.5 μL positive control (compound I-97) in the other. The plates are incubated at room temperature for 15 minutes. 5 μL substrate working solution is added to each well to initiate reaction. Final ACC2 reaction concentrations consist of: 5 nM ACC2, 20 μM ATP, 20 μM acetyl-CoA, 12 mM NaHCO3, 0.01% Brij35, 2 mM DTT, 5% DMSO, test compound concentrations: 30 μM, 10 μM, 3.33 μM, 1.11 μM, 0.37 μM, 0.123 μM, 0.0411 μM, 0.0137 μM, 0.00457 μM, 0.00152 μM, and 0.00051 μM. Plates are incubated at room temperature for 60 minutes. 10 μL ADP glo reagent is added. Plates are incubated at room temperature for 40 minutes. 20 μL kinase detection reagent is added. Plates are incubated at room temperature for 40 minutes, then read on a Perkin Elmer EnVision 2104 plate reader for luminescence as Relative Light Units (RLU).
Data for each concentration, as well as the positive and negative controls are averaged, and the standard deviation calculated. Percent inhibition is calculated by the formula: 100×(average negative control−compound)/(average negative control−average positive control). The IC50 for each compound is calculated by fitting the data with a non-linear regression equation: Y=Bottom+(Top-Bottom)/(1+10^((Log IC50−X)*HillSlope)), where X is the log of compound concentration and Y is percent inhibition.
In general terms: ADP-Glo turns the ADP formed in a reaction into a luminescent signal.

ACC2 (Homo sapiens, UniProt O00763), sequence (O00763 whole entry, species assumed): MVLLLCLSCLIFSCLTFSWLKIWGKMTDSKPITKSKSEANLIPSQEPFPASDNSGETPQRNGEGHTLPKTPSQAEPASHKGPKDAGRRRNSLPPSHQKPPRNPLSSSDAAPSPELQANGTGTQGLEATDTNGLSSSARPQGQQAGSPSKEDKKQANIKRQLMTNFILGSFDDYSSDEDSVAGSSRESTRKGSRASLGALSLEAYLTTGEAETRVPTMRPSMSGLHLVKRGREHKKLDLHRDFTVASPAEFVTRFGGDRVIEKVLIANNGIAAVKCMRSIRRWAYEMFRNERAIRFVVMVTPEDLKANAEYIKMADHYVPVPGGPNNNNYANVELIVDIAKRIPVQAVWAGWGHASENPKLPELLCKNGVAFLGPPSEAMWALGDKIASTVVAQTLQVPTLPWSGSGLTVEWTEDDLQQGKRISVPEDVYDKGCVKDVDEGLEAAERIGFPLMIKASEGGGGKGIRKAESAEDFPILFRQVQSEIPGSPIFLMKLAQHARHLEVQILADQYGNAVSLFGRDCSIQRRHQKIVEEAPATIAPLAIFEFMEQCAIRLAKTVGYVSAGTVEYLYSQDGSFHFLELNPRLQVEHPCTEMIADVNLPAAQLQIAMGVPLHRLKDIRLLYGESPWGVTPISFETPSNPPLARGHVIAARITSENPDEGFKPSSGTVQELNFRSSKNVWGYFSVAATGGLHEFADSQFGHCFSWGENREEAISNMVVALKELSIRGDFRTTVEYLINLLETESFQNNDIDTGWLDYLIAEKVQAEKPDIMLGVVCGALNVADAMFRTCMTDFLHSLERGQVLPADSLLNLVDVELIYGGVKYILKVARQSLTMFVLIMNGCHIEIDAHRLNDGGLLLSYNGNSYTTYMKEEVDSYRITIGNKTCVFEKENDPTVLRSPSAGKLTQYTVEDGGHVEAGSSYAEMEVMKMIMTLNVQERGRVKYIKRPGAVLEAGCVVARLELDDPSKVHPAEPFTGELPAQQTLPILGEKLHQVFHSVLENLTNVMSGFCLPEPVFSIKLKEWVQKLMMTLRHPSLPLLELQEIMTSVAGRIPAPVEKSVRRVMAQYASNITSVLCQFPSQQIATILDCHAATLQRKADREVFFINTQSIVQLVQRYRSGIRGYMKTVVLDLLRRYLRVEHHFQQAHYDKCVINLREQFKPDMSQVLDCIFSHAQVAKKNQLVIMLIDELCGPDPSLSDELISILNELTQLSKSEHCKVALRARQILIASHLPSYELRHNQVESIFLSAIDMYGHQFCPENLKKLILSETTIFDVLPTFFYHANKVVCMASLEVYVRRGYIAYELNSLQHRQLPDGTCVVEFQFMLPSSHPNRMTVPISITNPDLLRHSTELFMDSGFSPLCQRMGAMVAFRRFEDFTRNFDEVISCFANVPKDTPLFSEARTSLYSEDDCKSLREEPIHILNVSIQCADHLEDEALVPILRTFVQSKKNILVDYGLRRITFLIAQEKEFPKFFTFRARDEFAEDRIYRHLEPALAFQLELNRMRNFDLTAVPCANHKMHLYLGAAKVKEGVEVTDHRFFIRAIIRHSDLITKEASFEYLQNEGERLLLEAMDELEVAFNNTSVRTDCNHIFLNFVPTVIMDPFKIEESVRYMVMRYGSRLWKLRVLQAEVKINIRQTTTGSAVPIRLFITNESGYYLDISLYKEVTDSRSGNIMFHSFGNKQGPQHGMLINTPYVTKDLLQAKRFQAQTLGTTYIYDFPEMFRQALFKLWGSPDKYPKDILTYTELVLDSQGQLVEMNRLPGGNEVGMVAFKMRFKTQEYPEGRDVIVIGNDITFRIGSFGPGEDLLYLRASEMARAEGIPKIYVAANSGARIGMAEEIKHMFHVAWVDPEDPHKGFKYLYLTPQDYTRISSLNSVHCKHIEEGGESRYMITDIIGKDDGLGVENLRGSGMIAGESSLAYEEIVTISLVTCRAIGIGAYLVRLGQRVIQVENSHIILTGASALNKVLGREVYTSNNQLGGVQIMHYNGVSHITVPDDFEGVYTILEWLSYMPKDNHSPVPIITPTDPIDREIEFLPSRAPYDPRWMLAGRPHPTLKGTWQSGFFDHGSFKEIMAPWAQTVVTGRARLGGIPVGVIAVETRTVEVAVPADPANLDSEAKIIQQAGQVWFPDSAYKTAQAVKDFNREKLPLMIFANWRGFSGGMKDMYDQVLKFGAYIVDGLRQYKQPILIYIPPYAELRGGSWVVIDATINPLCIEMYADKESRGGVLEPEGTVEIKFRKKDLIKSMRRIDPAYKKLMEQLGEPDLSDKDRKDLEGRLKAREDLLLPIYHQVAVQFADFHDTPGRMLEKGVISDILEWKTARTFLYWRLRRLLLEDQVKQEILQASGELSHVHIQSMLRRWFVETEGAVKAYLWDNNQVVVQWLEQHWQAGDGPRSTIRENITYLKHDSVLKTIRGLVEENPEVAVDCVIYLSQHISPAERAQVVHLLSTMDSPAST

The term IC50 denotes the concentration at which inhibition is half-maximal. Turning to `O=C(c1c2ccccc2cc2ccccc12)N1CCC(N2CCC[C@@H](C(=O)N3CCOCC3)C2)CC1` [CP-640186], the IC50 in the experiment with ACC2 [1] and with ACC1 was ~60 nM each time.
For `COc1ccccc1CCc1cn(CC(=O)O)c(=O)c2c(C)c(-c3ncco3)sc12` [Compound I-33, 2-(7-(2-methoxyphenethyl)-3-methyl-2-(oxazol-2-yl)-4-oxothieno[3,2-c]pyridin-5(4H)-yl)acetic acid], the IC50 against ACC2 [2] was ≤ 1000 nM.
Consider `COc1ccccc1CCc1cn(CC(N)=O)c(=O)c2c(C)c(-c3ncco3)sc12` [Compound I-34, 2-(7-(2-methoxyphenethyl)-3-methyl-2-(oxazol-2-yl)-4-oxothieno[3,2-c]pyridin-5(4H)-yl)acetamide], for which, at ACC2 [2], the IC50 was ≤ 1000 nM.
On ACC2 [2], `COc1ccccc1CCn1c(=O)n(CC(=O)O)c(=O)c2nc(-c3ncco3)sc21` [Compound I-35, 2-(4-(2-methoxyphenethyl)-2-(oxazol-2-yl)-5,7-dioxo-4,5-dihydrothiazolo[5,4-d]pyrimidin-6(7H)-yl)acetic acid] came in with an IC50 of 5000 to 20000 nM.
On ACC2 [2], `COc1ccccc1CCn1c(=O)n(CC(=O)O)c(=O)c2c1nc(-c1ncco1)n2C` [Compound I-36, 2-(3-(2-methoxyphenethyl)-7-methyl-8-(oxazol-2-yl)-2,6-dioxo-2,3,6,7-tetrahydro-1H-purin-1-yl)acetic acid] displayed an IC50 of 5000 to 20000 nM.

Source of the values: patent US9988399B2, “Bicyclic compounds as ACC inhibitors and uses thereof” (Gilead Apollo, LLC, priority 2013, dated 2018).
